Structures can show the parent of a compound that is named as a salt. Where two headings read alike, the source gives them in different places.

For test [1], the system named is protein extravasation in the dura. Description: Inhibition of neuronal protein extravasation (trigeminal ganglion stimulation, Evans Blue in dura). The format is in vivo, Harlan Sprague-Dawley rats or guinea pigs.
The next test concerns the target T1, 5-HT1F receptor (Homo sapiens, UniProt P30939).
T1 sequence (P30939 1-366): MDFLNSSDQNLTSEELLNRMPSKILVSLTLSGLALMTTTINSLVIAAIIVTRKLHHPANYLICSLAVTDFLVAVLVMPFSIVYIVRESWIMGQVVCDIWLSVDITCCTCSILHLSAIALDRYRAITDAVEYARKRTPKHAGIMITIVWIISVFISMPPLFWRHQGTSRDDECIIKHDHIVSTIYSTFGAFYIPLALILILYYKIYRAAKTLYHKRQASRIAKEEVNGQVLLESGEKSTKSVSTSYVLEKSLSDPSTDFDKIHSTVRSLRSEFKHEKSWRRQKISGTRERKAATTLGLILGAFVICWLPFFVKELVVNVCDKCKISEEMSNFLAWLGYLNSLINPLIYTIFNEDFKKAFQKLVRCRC
Description: Radioligand ([3H]5-HT) binding to the 5-HT1F receptor subtype. As to conditions: for inhibition at 1 µM: read-out: 5-HT1F BINDING, % displacement at 1000 nM. Also noted: expressed in transfected cells; host or cells: Ltk- cells (membranes). The procedure: The cells were washed twice with phosphate-buffered saline, scraped from the culture dishes into 5 mL of ice-cold phosphate-buffered saline, and centrifuged at 200×g for 5 minutes at 4° C. The pellet was resuspended in 2.5 mL of ice-cold Tris buffer (20 mM Tris HCl, pH=7.4 at 23° C., 5 mM EDTA) and homogenized with a Wheaton tissue grinder. The lysate was subsequently centrifuged at 200×g for 5 minutes at 4° C. to pellet large fragments which were discarded. The supernatant was collected and centrifuged at 40,000×g for 20 minutes at 4° C. The pellet resulting from this centrifugation was washed once in ice-cold Tris wash buffer and resuspended in a final buffer containing 50 mM Tris HCl and 0.5 mM EDTA, pH=7.4 at 23° C. Membrane preparations were kept on ice and utilized within two hours for the radioligand binding assays.
Saturation studies were conducted using [^3 H]5-HT at 12 different concentrations ranging from 0.5 nM to 100 nM. […] The binding profile of drugs in competition experiments was accomplished using 10-12 concentrations of compound. […] Nonspecific binding was defined in the presence of 10 μM 5-HT. Binding was initiated by the addition of 50 μL membrane homogenates (10-20 μg). The reaction was terminated by rapid filtration through presoaked (0.5% polyethyleneimine) filters using 48R Cell Brandel Harvester (Gaithersburg, Md.). Subsequently, filters were washed for 5 seconds with ice cold buffer (50 mM Tris HCl, pH=7.4 at 4° C.), dried and placed into vials containing 2.5 mL Readi-Safe (Beckman, Fullerton, Calif.) and radioactivity was measured using a Beckman LS 5000TA liquid scintillation counter. […] Binding data was analyzed by computer-assisted nonlinear regression analysis (Accufit and Accucomp, Lunden Software, Chagrin Falls, Ohio). […] All experiments were performed in triplicate. […]

In test [2] the test system is cephalic vascular smooth muscle. As to conditions: cited from earlier work.
The test system of a further test is migraine. As to conditions: in vivo; cited from earlier work.
In the next test the test system is neurogenic inflammation. Particulars: in vivo; cited from earlier work.
Where [3] appears, read: iv, read-out: Inhibition of Protein Extravasation, i.v. ID50.
The mark [4] stands for this setting: Table I, [3H]5-HT displacement, transfected Ltk- cell membranes, 37° C., read-out: 5-HT1F BINDING Ki.

Take `CN(C)C1CCc2[nH]c3ccc(O)cc3c2C1` (stereo not drawn) [Compound V, 6-hydroxy-3-dimethylamino-1,2,3,4-tetrahydrocarbazole]: the ED50 in test [1] (setting [3]) was 8.7e-06 µmol/kg.
On to `CNS(=O)(=O)Cc1ccc2[nH]cc(CCN(C)C)c2c1` [Compound I, 3-[2-(dimethylamino)ethyl]-N-methyl-1H-indole-5-methanesulfonamide butane-1,4-dioate (1:1)], for which, in test [1] (setting [3]), the ED50 amounted to 2.6e-05 µmol/kg.
Turning to `Cn1cc(CCN2CCC(c3c[nH]c4ccc(F)cc34)CC2)cn1` [Compound II, 5-fluoro-3-<1-<2-<1-methyl-1H-pyrazol-4-yl>ethyl>-4-piperidinyl>-1H-indolehydrochloride], the ED50 in test [1] (iv; read-out: Inhibition of Protein Extravasation, i.v. ID50) stood at 8.6e-07 µmol/kg.
As for `C1=C(c2c[nH]c3ccc(OCc4ccccc4)cc23)CCN(CCc2ccccc2)C1` [Example 22, 5-benzyloxy-3-<1-<2-phenylethyl>-4-<1,2,3,6-tetrahydropyridinyl>>-1H-indolehydrochloride], the inhibition at 1 µM at 5-HT1F receptor turned out to be 62%.
Turning to `C1=C(c2c[nH]c3ccccc23)CCN(CCCc2ccccc2)C1` [Example 47, 3-<1-<3-phenylpropyl>-4-<1,2,3,6-tetrahydropyridinyl>>-1H-indolehydrochloride], the inhibition at 1 µM at 5-HT1F receptor was 62%.
With `Clc1cccc(CCN2CCC(c3c[nH]c4ccccc34)CC2)c1` [Example 6, 3-<1-<2-<3-chlorophenyl>ethyl>-4-piperidinyl>-1H-indole hydrochloride], the Ki (usually a measure of affinity in units of concentration, obtained from inhibition or displacement) on 5-HT1F receptor (setting [4]) is 11.7 nM.
Take `c1ccc(CCCN2CCC(c3c[nH]c4ccccc34)CC2)cc1` [Example 48, 3-<1-<3-phenylpropyl>-4-piperidinyl>-1H-indole hydrochloride]: at 5-HT1F receptor (Table I, at 1000 nM), the inhibition at 1 µM was 50%.
Turning to `NC(=O)c1ccc2[nH]cc(C3CCN(CCc4ccccc4)CC3)c2c1` [Example 31, 5-carboxamido-3-<1-<2-phenylethyl>-4-piperidinyl>-1H-indole hydrochloride], the Ki on 5-HT1F receptor (setting [4]) turned out to be 36.9 nM.
As to `COc1cccc(CCN2CCC(c3c[nH]c4ccccc34)CC2)c1` [Example 12, 3-<1-<2-<3-methoxyphenyl>ethyl>-4-piperidinyl>-1H-indole hydrochloride], on 5-HT1F receptor (setting [4]), the inhibitory constant (Ki) came out at 21.1 nM.
Regarding `c1ccc(SCCN2CCC(c3c[nH]c4ccccc34)CC2)cc1` [Example 42, 3-<1-<2-<phenylthio>ethyl>-4-piperidinyl>-1H-indole], at 5-HT1F receptor (setting [4]), the Ki amounted to 342 nM.
Still for that read-out and setting: the value for `Clc1ccc2[nH]cc(C3CCN(CCc4ccccc4)CC3)c2c1` [Example 27, 5-chloro-3-<1-<2-phenylethyl>-4-piperidinyl>-1H-indole hydrochloride] was 45.5 nM.
`CNS(=O)(=O)Cc1ccc2[nH]cc(CCN(C)C)c2c1` [sumatriptan]: the “contraction of cephalic vascular smooth muscle” value in test [2] is “contract cephalic vascular smooth muscle”. Moreover, the “effectiveness in the treatment of migraine” value in the test with migraine was “effective in the treatment of migraine”. In the test on neurogenic inflammation, the “blockade of neurogenic inflammation” value is recorded as “blocked”.
Regarding `Clc1ccccc1CCN1CCC(c2c[nH]c3ccccc23)CC1` [Example 5, 3-<1-<2-<2-chlorophenyl>ethyl>-4-piperidinyl>-1H-indole hydrochloride], the inhibition constant Ki on 5-HT1F receptor (setting [4]) amounted to 35.2 nM.
As for `Fc1ccc2[nH]cc(C3CCN(CCc4ccccc4)CC3)c2c1` [Example 25, 5-fluoro-3-<1-<2-phenylethyl>-4-piperidinyl>-1H-indole hydrochloride], the Ki on 5-HT1F receptor (setting [4]) was 29.6 nM.
For the molecule `Oc1ccc2[nH]cc(C3CCNCC3)c2c1` [Compound III, 5-hydroxy-3-(4-piperidinyl)-1H-indole oxalate], the ED50 in test [1] (setting [3]) is 8.9e-06 µmol/kg.
`NC(=O)c1ccc2[nH]cc(C3=CCN(CCc4ccccc4)CC3)c2c1` [Example 24, 5-carboxamido-3-<1-<2-phenylethyl>-4-<1,2,3,6-tetrahydropyridinyl>>-1H-indole maleate] registered a Ki on 5-HT1F receptor of 23.6 nM.
In the case of `Cc1ccc(CCN2CCC(c3c[nH]c4ccccc34)CC2)cc1` [Example 10, 3-<1-<2-<4-methylphenyl>ethyl>-4-piperidinyl>-1H-indole hydrochloride], on 5-HT1F receptor (setting [4]), the Ki came to 67.6 nM.
For the molecule `Fc1ccc2[nH]cc(C3=CCN(CCc4ccccc4)CC3)c2c1` [Example 18, 5-fluoro-3-<1-<2-phenylethyl>-4-<1,2,3,6-tetrahydropyridinyl>>-1H-indolehydrochloride], the Ki on 5-HT1F receptor is 48.3 nM.
As to `COc1ccccc1CCN1CCC(c2c[nH]c3ccccc23)CC1` [Example 11, 3-<1-<2-<2-methoxyphenyl>ethyl>-4-piperidinyl>-1H -indole hydrochloride], on 5-HT1F receptor (setting [4]), the Ki was found to be 34 nM.
Consider `CCN(CC)C1CCc2cccc(Cl)c2C1` (stereo not drawn) [Compound IV, 8-chloro-2-diethylamino-1,2,3,4-tetrahydronaphthalene hydrochloride], for which, in test [1] (setting [3]), the ED50 is 0.00012 µmol/kg.
As to `c1ccc(OCCN2CCC(c3c[nH]c4ccccc34)CC2)cc1` [Example 40, 3-<1-<2-phenoxyethyl>-4-piperidinyl>-1H-indole hydrochloride], the inhibitory constant (Ki) at 5-HT1F receptor (setting [4]) came out at 191 nM.
Regarding `c1ccc(CCCCN2CCC(c3c[nH]c4ccccc34)CC2)cc1` [Example 46, 3-<1-<4-phenylbutyl>-4-piperidinyl>-1H-indole hydrochloride], the inhibitory constant (Ki) on 5-HT1F receptor (setting [4]) is 20.4 nM.

(Values after patent publication US5521197A, “3-<1-alkylenearyl>-4-<1,2,3,6-tetrahydropyridinyl>-and 3-<1-alkylenearyl>-4-piperidinyl-1h-indoles: new 5-HT1F agonists” (Eli Lilly and Company, priority 1994, dated 1996).)
